Paper PMC11050282, “In Vitro and In Silico Studies on Cytotoxic Properties of Oxythiamine and 2′-Methylthiamine” (International Journal of Molecular Sciences, 2024)

Experiments:
HeLa cells [1] = test: Cell counting / growth curves in in vitro culture; format: cell-based, human; settings: for decrease in HeLa cell number compared to the control: 47 µM; for number of HeLa cells, % of the control: 1500 µM (maximum concentration); for GI50: HeLa cells, concentration causing 50% cell growth inhibition, from cell growth graphs, mean ± SD; for growth of HeLa cells in culture: microscopic observation / growth curves
[2] = test system: fibroblasts (ATCC-CRL-2106); test: Cell counting / growth curves in in vitro culture; format: cell-based, human; settings: for fibroblast cell number / growth in comparison to the controls: 6–1500 µM; for GI50: Homo sapiens, Fibroblast, fibroblasts, concentration causing 50% cell growth inhibition, from cell growth graphs
HeLa cells [3] = test: MTT test (cell metabolic activity); format: cell-based, human; settings: for IC50: HeLa cells, 50% reduction in cell metabolism rate, MTT test; for IC50 / SI (selectivity index): mean ± SD; for SI (selectivity index): ratio of IC50 (MTT) fibroblasts versus HeLa cells
Procedure: (§1) We investigated the cytotoxicity and effects of oxythiamine and 2′-methylthiamine on fibroblast (ATCC-CRL-2106) and HeLa (the human cervical cancer cell line; CCL-2; ATCC, Manassas, VA, USA) cell growth. Fibroblasts were at passage 5 and HeLa cells were at passage 15. Cells were cultured under the 5% CO2 and 95% humidity in Medium199 (M4530; Sigma-Aldrich, St. Louis, MO, USA) with 10% fetal bovine serum (F7524; Sigma-Aldrich), 50 U/mL penicillin, and 50 µg/mL streptomycin (P0781; Sigma-Aldrich) at 37 °C. The media was changed every 2 days. Cells were seeded at the density of 1 × 10^5 cells/well in 12-well plates one day prior to the addition of the test compounds. […] The toxicity of oxythiamine and 2′-methylthiamine was determined by means of colorimetric detection using the MTT test. The cells were incubated for 0.5 h in 0.5 mL of PBS with 50 μL of MTT (5 mg/mL). The medium was then removed from the wells, and formazan crystals were dissolved in 0.5 mL of dimethyl sulfoxide (DMSO) with 0.01 mL of Sorensen’s buffer. Absorbance was measured by means of the Lambda E plate reader (MWG Biotech AG, Ebensburg, Germany) at a wavelength of 570 nm. The results were expressed as a percentage of the controls. […] The experiments were conducted in six independent replicates for the purpose of statistical evaluation.

[4] = test system: fibroblasts (ATCC-CRL-2106); test: MTT test (cell metabolic activity); format: cell-based, human; settings: for IC50: Homo sapiens, Fibroblast, fibroblasts, 50% reduction in cell metabolism rate, MTT test
Procedure: as §1

rat liver transketolase = target: rat liver transketolase; set-up: method as in PMID 3730445; settings: cited from earlier work
yeast transketolase = target: yeast transketolase; set-up: method as in PMID 13719876; settings: cited from earlier work
human skin fibroblasts = test system: human skin fibroblasts; set-up: method as in PMID 25626895; settings: 30 µM to 1000 µM; cited from earlier work
[5] = test system: primary human gingival fibroblasts; set-up: method as in PMID 35409800; settings: 100 µM; cited from earlier work
OCT1 = settings: OCT1-related transport of drugs to cancer cells; cited from earlier work
THTR1 (SLC19A2) = settings: thiamine transport by THTR1; cited from earlier work
THTR2 (SLC19A3) = settings: thiamine transport by THTR2; cited from earlier work

GI50 (HeLa cells [1]; Homo sapiens, HeLa) [µM]	IC50 (HeLa cells [3]; Homo sapiens) [µM]	Structure (SMILES)	decrease in HeLa cell number compared to the control (HeLa cells [1])	number of HeLa cells, % of the control (HeLa cells [1]) [%]	GI50 (HeLa cells [1]) [µM]	growth of HeLa cells in culture (HeLa cells [1])	fibroblast cell number / growth in comparison to the controls [2]	GI50 [2] [µM]	SI (selectivity index) (HeLa cells [3])	IC50 [4] [µM]	reduction in cell viability [5]	also measured
		COc1cccc2c1C(=O)c1c(O)c3c(c(O)c1C2=O)C[C@@](O)(C(=O)CO)C[C@@H]3O[C@H]1C[C@H](N)[C@H](O)[C@H](C)O1 [doxorubicin]										Km (OCT1): 4.6 µM
83	112	Cc1ncc(C[n+]2c(C)sc(CCO)c2C)c(N)n1 [2′-methylthiamine, 2-[3-[(4-Amino-2-Methylpyrimidin-5-yl)methyl]-2,4-dimethyl-1,3-thiazol-3-ium-5-yl]ethanol]	decrease in the cell number by only about a half	~25	107	inhibit the growth	did not find any significant differences	> 1500	180	> 1500		decrease of metabolic activity of HeLa cells (MTT) concerning the control (HeLa cells [3]; 750 µM): 30%; melting point: 211 to 214 °C
> 1500	> 1500	Cc1ncc(C[n+]2csc(CCO)c2C)c(N)n1 [thiamine]				did not observe any differences	did not observe any differences	> 1500		> 1500		metabolic activity of fibroblasts (MTT) ([4]; concentrations above 47 µM): slightly increased; Km (THTR1 (SLC19A2)): 2.5 µM; Km (THTR2 (SLC19A3)): 0.00027 µM
		C/C(=C(\CCOP(=O)(O)O)SC(=O)c1ccccc1)N(C=O)Cc1cnc(C)[nH]c1=O [benfooxythiamine]									about 10%	

Structure (SMILES)	GI50 (HeLa cells [1]; Homo sapiens, HeLa) [µM]	IC50 (HeLa cells [3]; Homo sapiens) [µM]	decrease in HeLa cell number compared to the control (HeLa cells [1])	number of HeLa cells, % of the control (HeLa cells [1]) [%]	GI50 (HeLa cells [1]) [µM]	growth of HeLa cells in culture (HeLa cells [1])	fibroblast cell number / growth in comparison to the controls [2]	GI50 [2] [µM]	SI (selectivity index) (HeLa cells [3])	IC50 [4] [µM]	reduction in cell viability [5]	also measured
Cc1ncc(C[n+]2csc(CCO)c2C)c(O)n1 [oxythiamine]	39	51	higher than five-fold decrease	2	36	inhibit the growth	did not find any significant differences	> 1500	153	> 1500	about 10%	activity at 47 µM (HeLa cells [3]; Homo sapiens, HeLa, 47 µM, read-out: metabolic activity of HeLa cells (MTT), % of control): 50%; IC50 (rat liver transketolase): 0.2 µM; IC50 (yeast transketolase): ~0.03 µM; cell survival (human skin fibroblasts): not affecting cell survival
